Data published in article PMC9861623, “New Ferulic Acid and Amino Acid Derivatives with Increased Cosmeceutical and Pharmaceutical Potential” (Pharmaceutics, 2022).
Several values for one entry are separate records, joined by “and”; a condition that tells them apart may be missing. Identical values can stand only once.

Assays:
[1] = DPPH antioxidant activity of acceptor fluid after 24 h permeation; parameters: species or system pig; conditions: after 24 h penetration
Experimental: (§1) To determine the antioxidant capacity of ferulic acid and its derivatives the DPPH method was used. The analyses were performed using the Hitachi UV-Vis Spectrophotometer U-5100 at the wavelength λ = 517 nm. Trolox (6-hydroxy-2,5,7,8-tetramethylchroman-2-carboxylic acid) was used as a reference substance. The antioxidant activity was expressed as %RSA and mmol Trolox dm^−3. […]. Blank samples without antioxidant were prepared in the same way. The tubes were wrapped in aluminum foil and were sealed with a stopper and then incubated for 10 min at room temperature. After this time, spectrophotometric measurements were carried out in triplicate. For determination of antioxidant activity of the acceptor fluid after 24 h of permeation and solutions obtained by extraction of the skin obtained after penetration study, 0.15 mL samples of each solutions were separately added to 2.85 mL of DPPH solution and spectrophotometric measurements were performed. The antioxidant activity was expressed as mmol Trolox·dm^−3.
(§2) The permeation experiments were performed using Franz diffusion cells (Phoenix DB-6, ABL&E-JASCO, Wien, Austria). The diffusion was 1 cm^2. The volume of the acceptor chamber was 8 mL. This chamber was filled with PBS solution (pH 7.4). During experiment, a constant temperature of 37.0 ± 0.5 °C was maintained in each diffusion unit. The acceptor chamber content was stirred with a magnetic stirring bar at the same speed for all cells. The prepared pig skin was mounted on each donor chamber. As previously mentioned, only undamaged skin pieces with an even thickness were chosen for experiments. Thereafter, the hydrogel or emulsion vehicle/preparation in 1 g portion was put on the skin in donor cells. For comparison, 1 mL ethanolic solution containing either FA or its derivatives was applied to another donor chamber. The amount of the FA and its derivatives applied on the skin expressed as the mass of ferulic acid was 0.01 g and was the same for each carrier. The penetration experiments were carried out for 24 h. The samples were collected after 1 h, 2 h, 3 h, 4 h, 5 h, 6 h, 8 h, and 24 h. Aliquots of the acceptor fluid (0.5 mL) were withdrawn and to each acceptor chamber the same volume of fresh PBS solution was added. The FA and its derivatives’ concentrations in the acceptor fluid were measured by HPLC method (Section 2.6.2). The cumulative mass (µg·cm^−2) and penetration rate (µg·cm^−2·h^−1) were calculated. The acceptor fluid collected after 24 h of permeation was also measured for antioxidant activity and total polyphenol content (as described in Section 2.5.1 and Section 2.5.2).

[2] = Skin permeation in Franz diffusion cells; format: in vitro ADME, pig; conditions: 24 h, 10 mg as FA applied
Experimental: In the experiment, abdominal porcine skin coming from the local slaughterhouse was used. Pig skin was chosen because of its similar permeability to human skin [34, 35]. The fresh abdominal porcine skin was washed several times in PBS buffer pH 7.4. The skin of 0.5 mm in thickness was dermatomed and divided into 2 cm × 2 cm pieces. The skin samples were wrapped in aluminum foil and stored at −20 °C until use, not longer than 3 months. According to Badran et al., this storage time at this temperature is safe to keep skin barrier properties. Immediately before the experiment, the skin samples were slowly thawed at room temperature for 30 min and then were hydrated by PBS pH 7.4 [37, 38, 39, 40]. Such prepared skin was mounted on donor chamber. Only the undamaged skin pieces with an even thickness were chosen for experiments. The integrity of the skin was checked by impedance measurement using an LCRmeter4080 (Conrad Electronic, Hirschau, Germany), operated in parallel mode at an alternating frequency of 120 Hz (error at kΩ values < 0.5%). The tips of measuring probes were immersed in the donor and acceptor chamber containing PBS (pH 7.4), as described previously. Only skin samples of impedance > 3 kΩ were applied as such impedance is similar to the electrical resistance of human skin [42].
The concentration of FA and its derivatives in the acceptor fluid and in the fluid obtained by skin extraction after permeation experiment was assessed using liquid chromatography system (Knauer, Berlin, Germany) consisting of a model 2600 UV detector, Smartline model 1050 pump and Smartline model 3950 autosampler. HPLC was controlled by ClarityChrom 2009 software. The detector was operated at 280 nm. The separations were performed on 125 mm × 4 mm ID chromatographic column filled with Hyperisil ODS (C18), particle size 5 µm, in isocratic mode. The mobile phase consisted of acetonitrile, 1% acetic acid, and MeOH (47/47/6 v/v/v) and was pumped at flow rate of 1 mL min^−1. The column temperature was set at 25 °C, and the injection volume was 20 µL.
as §2

[3] = DPPH antioxidant activity of solution obtained after skin extraction; parameters: species or system pig; conditions: after 24 h penetration
Experimental: as §1
(§3) The accumulation of the FA and its derivatives in the skin after 24 h permeation process through the skin were determined using a modification of the methods described by Janus et al. and Taokaew et al.. After 24 h of permeation experiment, the skin samples were removed from the Franz diffusion cell, washed three times with 0.5% sodium lauryl sulfate solution and dried at room temperature. Next, after cutting out the diffusion area of each skin sample, the samples were immersed in 2 mL of absolute ethanol and continuously stirred at 300 rpm at room temperature for 24 h. The samples were then centrifuged, and clear solutions were collected and analyzed by HPLC method for the determination of FA and its derivatives. The accumulation of the active substance in the skin was calculated by dividing the amount of the drug remaining in the skin by a mass of skin sample and was expressed in mass active substance per mass of the skin (µg g^−1). For solution obtained after skin extraction, the antioxidant activity and total polyphenol content were also determined (as described in Section 2.5.1 and Section 2.5.2).

[4] = DPPH radical scavenging assay of the compounds
Experimental: as §1

[5] = test system: Murine fibroblasts (L929); test: Cytotoxicity, PrestoBlue resazurin-based cell viability assay; conditions: 2.0 mM, 24 h, PrestoBlue, normalized to control
Experimental: The cell biocompatibility was evaluated using a PrestoBlue HS Cell Viability Reagent (Thermo Fisher Scientific, MA USA) based on the reduction of the resazurin to highly fluorescent resorufin, of which the amount is directly correlated to the number of living cells. […] The cells without tested compounds were used as control. The interaction of tested compounds without cells and Prestoblue Reagent (blank wells) was excluded. After 24 h of treatment, optical microscopy imaging of L929 cells was performed using Smart Fluorescent Cell Analyzer Microscope JuLi (Seoul, Korea). Next, the PrestoBlue reagent (10 μL) was added to each well and incubated for 30 min. The fluorescence was measured using a spectrophotometric microplate reader (Infinite 200 Pro, Tecan, Männedorf, Switzerland) at ex/em: 560/594 nm. The readings were acquired from at least three independent experiments (each conducted in triplicate) and normalized to the control (100% viability).

[6] = n-octanol/water partition coefficient by shake flask method; format: physicochemical
Experimental: The n-octanol/water partition coefficient (log PO/W) was determined for ferulic acid and its derivatives by shake flask method. n-Octanol saturated with water and water saturated with n-octanol were prepared at 25 °C, 24 h prior to their use in the experiments. Then, a sample of 10 mg of compound was weighed with the accuracy of 0.01 mg in a 16 cm^3 screwed vial and dissolved in 5 cm^3 of n-octanol. Next, 5 cm^3 of water was added to the vial. The resulting two-phase mixture was kept in water bath shaker at 25 °C for 2 h and was strongly shaken to reach the partition equilibrium of the compound between the phases. Then the mixture was left unshaken for 30 min and 1.0 cm^3 of water phase was carefully taken out to centrifuge tube. The sample was next centrifuged for 10 min at 7500 rpm at 25 °C to ensure the most precise phase separation. The concentration of compound in water phase was then determined using HPLC method. The partition coefficient, log PO/W was calculated according to the formula: logPO/W=logC0V0−CWVW/CWVW where: C0—initial concentration of the compound in n-octanol, calculated based on the weighed mass of compound, mg·cm^−^3; V0—volume of n-octanol, cm^3; CW—concentration of the compound in water after partition equilibrium, mg·cm^−^3; VW—volume of water, cm^3.

[7] = Accumulation in the skin after 24 h permeation; format: in vitro ADME, pig; conditions: 24 h penetration, ethanol solution
Experimental: as §3

[8] = Thermogravimetric (TG) analysis, thermal stability; format: physicochemical; conditions: air atmosphere, 10 °C·min^−1
Experimental: Samples of 2–5 mg, loaded in aluminium crucibles, were heated from 30 °C to 600 °C at the heating rate of 10 °C·min^−1, in the air atmosphere (25 mL·min^−1) with nitrogen flow (10 mL·min^−1) as the purge gas.

[9] = molar ratio antioxidant:DPPH 0.1, 10 min
[10] = molar ratio antioxidant:DPPH 1.0, 10 min
[11] = molar ratio antioxidant:DPPH 2.0, 10 min

## CCCOC(=O)[C@@H]1CCCN1.COc1cc(/C=C/C(=O)O)ccc1O [PPr[FA], L-proline propyl ester ferulate]
[1]; emulsion
  DPPH antioxidant activity of the acceptor fluid: 0.061 ± 0.007 mmol Trolox dm^−3 and 0.061 ± 0.007 a mmol Trolox dm^−3
[1]; ethanol solution
  DPPH antioxidant activity of the acceptor fluid: 0.094 ± 0.002 a mmol Trolox dm^−3
[1]; hydrogel
  DPPH antioxidant activity of the acceptor fluid: 0.075 ± 0.012 mmol Trolox dm^−3 and 0.075 ± 0.012 a mmol Trolox dm^−3
[2]; from emulsion
  Cumulative Permeation Mass: 128.80 ± 19.86 µg FA·cm^−2 and 128.80 ± 19.86 a µg FA·cm^−2
[2]; from hydrogel
  Cumulative Permeation Mass: 396.86 ± 42.13 µg FA·cm^−2 and 396.86 ± 42.13 b µg FA·cm^−2
[2]; from solution in 70% (v/v) ethanol
  Cumulative Permeation Mass: 427.00 ± 4.674 µg FA·cm^−2 and 427.00 ± 4.67 b µg FA·cm^−2
[3]; emulsion
  DPPH antioxidant activity of the solution obtained after skin extraction: 0.198 ± 0.006 a mmol Trolox dm^−3
[3]; ethanol solution
  DPPH antioxidant activity of the solution obtained after skin extraction: 0.259 ± 0.007 a mmol Trolox dm^−3
[3]; hydrogel
  DPPH antioxidant activity of the solution obtained after skin extraction: 0.351 ± 0.036 ab mmol Trolox dm^−3
[4]; [9]
  Antioxidant activity %RSA: 19.3 ± 0.001 %RSA and 19.3 ± 0.001 a %RSA
  Antioxidant activity, Trolox equivalents: 0.115 ± 0.001 mmol Trolox dm^−3 and 0.115 ± 0.001 a mmol Trolox dm^−3
[4]; [10]
  Antioxidant activity %RSA: 79.6 ± 0.001 b %RSA
  Antioxidant activity, Trolox equivalents: 0.697 ± 0.001 b mmol Trolox dm^−3
[4]; [11]
  Antioxidant activity %RSA: 87.7 ± 0.001 %RSA and 87.7 ± 0.001 b %RSA
  Antioxidant activity, Trolox equivalents: 0.775 ± 0.001 mmol Trolox dm^−3 and 0.775 ± 0.001 b mmol Trolox dm^−3
[5]
  L929 viability: 78.56 ± 2.73%
[6]; from log PO/W
  Share of compound partitioned to n-octanol: 74%
[6]; n-octanol/water, shake flask, 25 °C
  log PO/W: 0.447 ± 0.022
[7]
  Accumulation in the skin compared to pure FA: accumulated in a significantly smaller amount compared to pure FA
[8]; TG
  Td onset, the onset of decomposition: 122.8 °C
[8]; TG/DTG
  Td max, temperature of the fastest mass loss of the sample: 148.7 °C
